Counter-ions that a name gives are not always drawn.
Assays:
[1] = tested on: antioxidant response element (ARE); experiment: ARE luciferase reporter assay in HepG2-ARE-C8 cells; assay type: cell-based; conditions: HepG2-ARE-C8, 12 h of treatment, mean ± SD n = 3, read-out: ARE Inductivity in Luciferase Reporter Assay (induction fold)
Description: (§1) All the derivatives were evaluated for their ability to induce ARE in HepG2-ARE-C8 cell (HepG2 cells stably transfected with a luciferase reporter) by ARE luciferase reporter assay, and they were compared to the lead compound 2. At the same time, cytotoxicity studies were performed by the MTT assay against the HCT116 cells. The results of cytotoxic activity in vitro were expressed as the IC50 [18]. Because those compounds were designed for chemoprevention, they should not be cytotoxic.
HepG2-ARE-C8 cells (4 × 10^4 cells/well) were incubated overnight in 96-well plates, and then treated with different concentrations of test compounds. tBHQ was used as a positive control, DMSO was used as a negative control, and the luciferase cell culture lysis reagent was used as a blank. The medium was removed after 12 h treatment. Then, the cells were harvested in the luciferase cell culture lysis reagent together with 100 μL of cold PBS. Then, centrifuging the solution and 20 μL of the supernatant was used for determining the luciferase activity. The luciferase activity was measured by a Luminoskan Ascent (Thermo Scientific, Waltham, MA, USA). The data were obtained in triplicate and expressed as fold induction over the control. Induction fold = (RLUtest − RLUblank)/(RLUDMSOcontrol − RLUblank). RLU = relative light unit l.

[2] = MTT cell viability (cytotoxicity) assay; assay type: cell-based; conditions: human, HCT116 cells
Description: as §1
Cell viabilities were determined by using 3-[4,5-dimethylthiazol-2-yl]-2,5-diphenyltetrazolium bromide (MTT) assay. MTT was dissolved in (phosphate buffered solution) PBS to a concentration of 5 mg/mL. HCT116 cells (8 × 10^3 cells/well) were plated in 96-well plates and incubated overnight. Different concentrations of test compounds were added to each cell for 24 h at 37 °C, and the 20 μL MTT solution was added and incubated for an additional 4 h. Then, 100 μL of DMSO was added to dissolve formazan precipitate after the solution was removed. The OD value was determined at 570 nm by Elx800 absorbance microplate reader (BioTek, Winooski, VT, USA). IC50 value (concentration at which cell survival equals 50% of control) = […].

melting point [°C]	Compound	fold induction at 0.1 µM [1]	fold induction at 1 µM [1]	fold induction at 5 µM [1]	fold induction at 10 µM [1]	fold induction at 50 µM [1]	fold induction at 100 µM [1]	IC50 at 24 h [2] [µM]
206 to 208	Nc1cccc(C(=O)C=C2NCC3c4ccccc4CCN3C2=O)c1 (centres unmarked) [Compound 1a, 3-(2-(3-aminophenyl)-2-oxoethylidene)-1,2,3,6,7,11b-hexahydro-4H-pyrazino[2,1-a]isoquinolin-4-one]	0.56 ± 0.28	1.66 ± 0.05	2.4 ± 1.18	5.64 ± 2.06	7.53 ± 1.28	7.62 ± 2.79	> 300
247 to 249	CC(=O)Nc1cccc(C(=O)C=C2NCC3c4ccccc4CCN3C2=O)c1 (centres unmarked) [Compound 1c, N-(3-(2-(4-oxo-1,6,7,11b-tetrahydro-2H-pyrazino[2,1-a]isoquinolin-3(4H)-ylidene)acetyl)phenyl)acetamide]	0.8 ± 0.19	0.78 ± 0.36	2.3 ± 0.39	3.05 ± 0.53	3.09 ± 0.09	3.41 ± 0.65	> 300
173 to 175	O=C(C=C1NCC2c3ccccc3CCN2C1=O)C1CC1 (centres unmarked) [Compound 2b, 3-(2-cyclopropyl-2-oxoethylidene)-1,2,3,6,7,11b-hexahydro-4H-pyrazino[2,1-a]isoquinolin-4-one]	3.71 ± 1.41	3.57 ± 1.08	4.85 ± 0.82	6.58 ± 2	8.24 ± 0.62	12.9 ± 1.73	> 300
180 to 182	O=C(C=C1NCC2c3ccccc3CCN2C1=O)C1=CCCCC1 (centres unmarked) [Compound 2f, 3-(2-(cyclohex-1-en-1-yl)-2-oxoethylidene)-1,2,3,6,7,11b-hexahydro-4H-pyrazino[2,1-a]isoquinolin-4-one]	3.27 ± 1.59	2.1 ± 0.59	5.46 ± 1.83	8.45 ± 1.05	3.34 ± 1.05	3.07 ± 0.43	171
270 to 272	O=C(C=C1NCC2c3ccccc3CCN2C1=O)c1c[nH]c2ccccc12 (centres unmarked) [Compound 2g, 3-(2-(1H-indol-3-yl)-2-oxoethylidene)-1,2,3,6,7,11b-hexahydro-4H-pyrazino[2,1-a]isoquinolin-4-one]	1.27 ± 0.52	2.31 ± 0.24	4.68 ± 0.29	5.84 ± 0.07	14.5 ± 0.36	9.69 ± 0.8	> 300
245 to 247	O=C(C=C1NCC2c3ccccc3CCN2C1=O)c1cnc2ccccc2c1 (centres unmarked) [Compound 2h, 3-(2-oxo-2-(quinolin-3-yl)ethylidene)-1,2,3,6,7,11b-hexahydro-4H-pyrazino[2,1-a]isoquinolin-4-one]	2.06 ± 0.98	3.4 ± 0.02	3.62 ± 0.29	4.59 ± 0.14	4.38 ± 1.94	4.98 ± 0.53	92.4
235 to 237	O=C(C=C1NCC2c3ccccc3CCN2C1=O)c1ccc(N2CCOCC2)cc1 (centres unmarked) [Compound 2i, 3-(2-(4-morpholinophenyl)-2-oxoethylidene)-1,2,3,6,7,11b-hexahydro-4H-pyrazino[2,1-a]isoquinolin-4-one]	1.71 ± 0.71	1.88 ± 1.36	1.37 ± 0.19	1.66 ± 0.53	1.16 ± 0.63	1.42 ± 0.31	237
157 to 159	O=C(C=C1NCC2CCCCN2C1=O)c1cccc(Cl)c1 (centres unmarked) [Compound 3c, 3-(2-(3-chlorophenyl)-2-oxoethylidene)octahydro-4H-pyrido[1,2-a]pyrazin-4-one]	1.85 ± 0.21	8.41 ± 0.04	10.2 ± 3.44	11.4 ± 1.12	1.13 ± 1.03	1.33 ± 0.19	174
133 to 135	COc1cccc(C(=O)C=C2NCC3CCCCN3C2=O)c1 (centres unmarked) [Compound 3e, 3-(2-(3-methoxyphenyl)-2-oxoethylidene)octahydro-4H-pyrido[1,2-a]pyrazin-4-one]	1.4 ± 1.21	1.82 ± 1.15	6.59 ± 0.77	9.16 ± 0.42	9.36 ± 3.76	1.44 ± 1.75	> 300
197 to 199	O=C(C=C1NCC2CCCCN2C1=O)c1ccc(-c2ccccc2)cc1 (centres unmarked) [Compound 3f, 3-(2-([1,1′-biphenyl]-4-yl)-2-oxoethylidene)octahydro-4H-pyrido[1,2-a]pyrazin-4-one]	2.96 ± 0.66	2.21 ± 0.52	3.6 ± 0.42	1.76 ± 0.1	2.47 ± 0.03	2.69 ± 2.75	184

Second part, the molecule before the results:

Compound	melting point [°C]	fold induction at 0.1 µM [1]	fold induction at 1 µM [1]	fold induction at 5 µM [1]	fold induction at 10 µM [1]	fold induction at 50 µM [1]	fold induction at 100 µM [1]	IC50 at 24 h [2] [µM]
Nc1ccc(C(=O)C=C2NCC3c4ccccc4CCN3C2=O)cc1 (centres unmarked) [Compound 1b, 3-(2-(4-aminophenyl)-2-oxoethylidene)-1,2,3,6,7,11b-hexahydro-4H-pyrazino[2,1-a]isoquinolin-4-one]	238 to 240	1.26 ± 0.28	1.26 ± 0.73	2.78 ± 0.29	3.45 ± 0.03	2.75 ± 0.68	2.68 ± 0.31	> 300
CC(=O)Nc1ccc(C(=O)C=C2NCC3c4ccccc4CCN3C2=O)cc1 (centres unmarked) [Compound 1d, N-(4-(2-(4-oxo-1,6,7,11b-tetrahydro-2H-pyrazino[2,1-a]isoquinolin-3(4H)-ylidene)acetyl)phenyl)acetamide]	279 to 281	1.24 ± 0.23	1.09 ± 0.72	1.49 ± 0.16	2.94 ± 1.9	7.14 ± 0.34	10.07 ± 0.05	> 300
CCCC(=O)C=C1NCC2c3ccccc3CCN2C1=O (centres unmarked) [Compound 2a, 3-(2-oxopentylidene)-1,2,3,6,7,11b-hexahydro-4H-pyrazino[2,1-a]isoquinolin-4-one]	158 to 160	2.38 ± 0.11	2.28 ± 0.78	2.55 ± 0.31	3.09 ± 1.09	6.74 ± 0.67	19.6 ± 0.47	> 300
O=C(C=C1NCC2c3ccccc3CCN2C1=O)C1CCCC1 (centres unmarked) [Compound 2d, 3-(2-cyclopentyl-2-oxoethylidene)-1,2,3,6,7,11b-hexahydro-4H-pyrazino[2,1-a]isoquinolin-4-one]	185 to 187	1.06 ± 0.09	3.19 ± 0.52	4.06 ± 0.3	7.38 ± 0.31	5.22 ± 1.28	5.83 ± 0.38	161
O=C(C=C1NCC2c3ccccc3CCN2C1=O)C1CCCCC1 (centres unmarked) [Compound 2e, 3-(2-cyclohexyl-2-oxoethylidene)-1,2,3,6,7,11b-hexahydro-4H-pyrazino[2,1-a]isoquinolin-4-one]	203 to 205	1.92 ± 0.82	2.17 ± 1.05	3.03 ± 0.68	3.49 ± 0.64	3.92 ± 0.53	8.31 ± 0.25	> 300
O=C(C=C1NCC2CCCCN2C1=O)c1cccc([N+](=O)[O-])c1 (centres unmarked) [Compound 3d, 3-(2-(3-nitrophenyl)-2-oxoethylidene)octahydro-4H-pyrido[1,2-a]pyrazin-4-one]	174 to 176	1.96 ± 0.88	3.85 ± 1	12 ± 2.55	19.5 ± 3.09	47.6 ± 3.54	8.66 ± 3.27	181
COC(=O)/C=C/C(=O)OC [DMF, Dimethyl fumarate, reference compound]	–	1.04 ± 0.21	1.1 ± 0.11	1.4 ± 0.21	2.06 ± 0.25	3.34 ± 0.52	5.31 ± 0.24	–
